How the values were obtained:
hMAO-B = molecular target: T1, hMAO-B (Homo sapiens, UniProt P27338); assay: Lineweaver-Burk plots, mode of inhibition and Ki; type: biochemical
T1 sequence (P27338 1-520): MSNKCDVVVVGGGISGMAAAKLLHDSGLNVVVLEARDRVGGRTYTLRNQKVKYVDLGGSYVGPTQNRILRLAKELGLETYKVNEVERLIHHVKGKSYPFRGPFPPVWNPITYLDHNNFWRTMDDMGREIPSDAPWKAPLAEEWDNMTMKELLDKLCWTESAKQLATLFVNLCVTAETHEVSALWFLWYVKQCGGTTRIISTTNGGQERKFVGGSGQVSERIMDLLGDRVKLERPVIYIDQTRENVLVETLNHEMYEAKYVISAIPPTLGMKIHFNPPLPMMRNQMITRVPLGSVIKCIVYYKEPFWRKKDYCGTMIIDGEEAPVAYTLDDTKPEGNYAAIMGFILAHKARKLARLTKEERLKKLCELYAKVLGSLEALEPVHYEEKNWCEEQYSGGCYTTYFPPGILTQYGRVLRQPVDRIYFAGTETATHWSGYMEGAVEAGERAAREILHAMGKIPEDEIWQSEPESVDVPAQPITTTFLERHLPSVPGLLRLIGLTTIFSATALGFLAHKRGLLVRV
Protocol: To construct Lineweaver–Burk plots, the enzyme reactions were carried out to a volume of 500 µL and the concentration of MAO-B was 0.015 mg protein/mL. All enzyme reactions and activity measurements were carried out as described above for the dialysis experiments. The first plot was constructed in the absence of inhibitor, while the remaining five plots were constructed in the presence of the following concentrations: ¼ × IC50, ½ × IC50, ¾ × IC50, 1 × IC50 and 1¼ × IC50. For each line, kynuramine was used at concentrations of 15–250 μM. The Ki value was estimated from a plot of the slopes of the Lineweaver–Burk plots versus inhibitor concentration (x-axis intercept equals –Ki).
To provide further support for the reversibility of MAO-B inhibition by compounds 4 and 37, a set of Lineweaver–Burk plots was constructed for each inhibitor at the following inhibitor concentrations: ¼ × IC50, ½ × IC50, ¾ × IC50, 1 × IC50, and 1¼ × IC50. The substrate, kynuramine, was used at 15–250 µM for each line. […] The lines of the plots intersect on the y-axis and a replot of the slopes versus inhibitor concentration yields a linear line, from which the enzyme-inhibitor dissociation constant (Ki) was estimated (Ki = −x-axis intercept).

[1] = DPPH radical scavenging activity
[2] = ABTS radical cation scavenging activity
[3] = FRAP (ferric reducing antioxidant power) assay

CC(=NNc1nc(-c2cccc([N+](=O)[O-])c2)cs1)c1cccs1 [Compound 4, 1-(4-(3-Nitrophenyl)thiazol-2-yl)-2-(1-(thiophen-2-yl)ethylidene)hydrazine]
Ki (hMAO-B): 2.6 nM
Mode of MAO-B inhibition (hMAO-B; Lineweaver-Burk plots): competitive
IC50 [1]: 1.17 ± 0.01 mM
IC50 [2]: 1.04 ± 0.01 mM
EC50 [3]: 530 ± 20 µM

From PMC6366404, “4-(3-Nitrophenyl)thiazol-2-ylhydrazone derivatives as antioxidants and selective hMAO-B inhibitors: synthesis, biological activity and computational analysis” (Journal of Enzyme Inhibition and Medicinal Chemistry, 2019)
